Data published in PubChem BioAssay (NCI).
Values joined by “and” are separate entries in the source; they are usually repeats but may differ in a detail not shown here. Equal values may be shown once.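 48-hour exposure; five concentrations; linearly interpolated endpoints. At the GI50, growth is halved. TGI denotes the concentration required for complete inhibition of growth.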

Tests used:
Test in all cases: NCI anticancer screen, dose series, 48 h
SK-OV-3 ovarian = system: SK-OV-3 ovarian
UACC-62 melanoma = system: UACC-62 melanoma
MCF7 breast = system: MCF7 breast
KM12 colon = system: KM12 colon
HCT-15 colon = system: HCT-15 colon
SN12C renal = system: SN12C renal
SK-MEL-2 melanoma = system: SK-MEL-2 melanoma
MDA-MB-231 breast = system: MDA-MB-231 breast
HS 578T breast = system: HS 578T breast
CAKI-1 renal = system: CAKI-1 renal

Row | Compound | GI50 (SK-OV-3 ovarian) | TGI (SK-OV-3 ovarian) | GI50 (UACC-62 melanoma) | TGI (UACC-62 melanoma) | GI50 (MCF7 breast) | TGI (MCF7 breast) | GI50 (KM12 colon) | TGI (KM12 colon) | GI50 (HCT-15 colon) | TGI (HCT-15 colon) | GI50 (SN12C renal) | TGI (SN12C renal) | GI50 (SK-MEL-2 melanoma) | TGI (SK-MEL-2 melanoma) | GI50 (MDA-MB-231 breast) | TGI (MDA-MB-231 breast) | GI50 (HS 578T breast) | TGI (HS 578T breast) | TGI (CAKI-1 renal) | GI50 (CAKI-1 renal)
1 | COc1ccc2c(c1)/C(=N/OC(C)=O)c1c-2cnc2ccccc12 | 40.4 µM | > 100 µM | 16.6 µM | 36.3 µM | 39.7 µM | > 100 µM | 25 µM | 78.7 µM | 34.9 µM | > 100 µM | 18.9 µM | 36.3 µM | 26.9 µM | 64.6 µM | 22.1 µM | 59.4 µM | 39.8 µM | > 100 µM | – | –
2 | O=c1[nH]cc(C(F)(C(F)(F)F)C(F)(F)F)c(=O)[nH]1 | – | > 100 µM | – | > 100 µM | – | – | – | > 100 µM | – | > 100 µM | – | > 100 µM | – | > 100 µM | – | – | – | – | > 100 µM | –
3 | Cn1cc(-c2nc(N[C@@H]3CCCC[C@@H]3N)c(F)c3c2C(=O)NC3)cn1 | 4.06 µM and 3.77 µM | 40.1 µM and 43.8 µM | 10.4 µM and 13.1 µM | > 100 µM | 5.81 µM and 6.21 µM | > 100 µM | 0.458 µM and 0.452 µM | > 100 µM | 12 µM and 13.3 µM | > 100 µM | 3.61 µM and 3.8 µM | > 100 µM | 20.5 µM and 24.9 µM | > 100 µM | 5.04 µM and 6.15 µM | 26.2 µM and 31.9 µM | 5.95 µM and 6.14 µM | 71 µM and 57.2 µM | – | –
4 | CN1CCN(c2ccc3nc(-c4ccc(OCCCCN5CCN(CCCCN6C(=O)c7cccc8cccc(c78)C6=O)CC5)cc4)[nH]c3c2)CC1 | > 100 µM | > 100 µM | 40.7 µM | > 100 µM | 74.7 µM | > 100 µM | 43.8 µM | > 100 µM | 35.3 µM | > 100 µM | – | – | 95.6 µM | > 100 µM | 54.7 µM | > 100 µM | 3.39 µM | > 100 µM | > 100 µM | 73.1 µM
5 | O=S1(=O)c2ccccc2N=C(c2ccccc2Cl)CC1c1ccc(F)cc1 (centres undefined) | – | 89 µM | – | 32 µM | – | – | – | 31.8 µM | – | 35.6 µM | – | 29.1 µM | – | 35.9 µM | – | – | – | – | 34.3 µM | –
6 | CCCCCCCCCCCCCCCCCC(=O)NCC(COP(=O)(O)O)OCC (centres undefined) | – | > 100 µM | – | > 100 µM | – | – | – | 58.3 µM | – | – | – | 46.4 µM | – | > 100 µM | – | – | – | – | > 100 µM | –
7 | COc1ccc2c(c1)c1c3n2CCNN=C3CCC1 | – | > 100 µM | – | > 100 µM | – | – | – | > 100 µM | – | > 100 µM | – | > 100 µM | – | > 100 µM | – | – | – | – | > 100 µM | –
8 | c1ccc(-c2ccnc3c2ccc2c(-c4ccccc4)ccnc23)cc1 | – | 11.6 µM | – | 2.25 µM | – | – | – | 10.2 µM | – | – | – | 6.54 µM | – | 11.4 µM | – | – | – | – | – | –
9 | Cc1noc(/N=C2\C=C(Nc3onc(C)c3C)C(=O)c3ccccc32)c1C | – | > 100 µM | – | > 100 µM | – | – | – | > 100 µM | – | > 100 µM | – | > 100 µM | – | > 100 µM | – | – | – | – | > 100 µM | –
10 | COC(=O)C(=O)C(C(=O)C(=O)Nc1cc(Cl)c(Cl)cc1Cl)c1nc2ccc([N+](=O)[O-])cc2[nH]c1=O (centres undefined) | – | > 100 µM | – | > 100 µM | – | – | – | > 100 µM | – | > 100 µM | – | > 100 µM | – | > 100 µM | – | – | – | – | > 100 µM | –
11 | COC(=O)/C(=N\Nc1nnc(C)n1N)C(C#N)c1ccccc1 (centres undefined) | – | > 100 µM | – | > 100 µM | – | – | – | > 100 µM | – | > 100 µM | – | > 66.7 µM | – | > 100 µM | – | > 100 µM | – | > 100 µM | > 100 µM | –
12 | Cn1cc(NC(=O)Nc2cc(C(=O)Nc3cc(C(=O)Nc4cc(S(=O)(=O)O)c5cc(S(=O)(=O)O)cc(S(=O)(=O)O)c5c4)n(C)c3)n(C)c2)cc1C(=O)Nc1cc(C(=O)Nc2cc(S(=O)(=O)O)c3cc(S(=O)(=O)O)cc(S(=O)(=O)O)c3c2)n(C)c1 | – | > 100 µM | – | > 100 µM | – | > 100 µM | – | > 100 µM | – | > 100 µM | – | > 100 µM | – | – | – | > 100 µM | – | > 100 µM | – | –
13 | COC(=O)C(C(=O)C(N)=O)c1csc(-n2nc(-c3ccccc3)cc2-c2ccccc2)n1 (centres undefined) | – | > 31.6 µM | – | > 31.6 µM | – | – | – | > 31.6 µM | – | > 31.6 µM | – | – | – | > 31.6 µM | – | – | – | – | 15.5 µM | –
14 | C#CCOCn1cnc2ncnc(N)c21 | – | > 100 µM | – | > 100 µM | – | – | – | > 100 µM | – | – | – | > 100 µM | – | > 100 µM | – | – | – | – | > 100 µM | –
15 | C/C(CC(=O)Nc1cccc([N+](=O)[O-])c1)=N\NC(=O)CC#N | – | > 100 µM | – | > 100 µM | – | – | – | > 100 µM | – | – | – | – | – | > 100 µM | – | – | – | – | – | –
16 | CC(=O)OC(=O)O/C=C\CCl | – | > 100 µM | – | > 100 µM | – | – | – | > 100 µM | – | > 100 µM | – | > 100 µM | – | > 100 µM | – | – | – | – | > 100 µM | –
17 | CC(=O)[C-](C(C)=O)c1ccccc1.CC(=O)[C-](C(C)=O)c1ccccc1.CC(=O)[C-](C(C)=O)c1ccccc1.[Cl-].[Zr+4] | > 100 µM | > 100 µM | > 100 µM | > 100 µM | – | – | > 100 µM | > 100 µM | > 100 µM | > 100 µM | > 100 µM | > 100 µM | > 100 µM | > 100 µM | – | – | – | – | > 100 µM | > 100 µM
18 | O=C(/C=C/c1ccccc1)CCC1C(=O)NC(=S)NC1=O | – | > 100 µM | – | > 100 µM | – | – | – | – | – | > 100 µM | – | > 100 µM | – | > 100 µM | – | > 100 µM | – | > 100 µM | > 100 µM | –
19 | H-QIYKKYRTWYRKAWKVLGKV-NH2 | 11.3 µM | 30.5 µM | 2.08 µM | 4.74 µM | – | – | 2.97 µM | 9.37 µM | 2.92 µM | 17 µM | 3.56 µM | 15 µM | 16.5 µM | 49.8 µM | 4.35 µM | 17.9 µM | 2.57 µM | 8.51 µM | 19 µM | 3.89 µM
20 | Cc1c2ccncc2c(C)c2c1[nH]c1ccc(Cl)cc12 | 12.2 µM | 17.9 µM and 31.1 µM | 4.13 µM | 11.1 µM and 17 µM | – | 6.28 µM | 4.25 µM | 5.7 µM and 18.9 µM | 1.41 µM | 5.17 µM and 3.23 µM | 1.41 µM | 10.1 µM and 7.46 µM | – | 7.17 µM and 10.9 µM | – | – | – | – | – | 0.602 µM and 5.24 µM
21 | CC(=O)NC(CCCN(Cc1ccccc1)C(=O)N(C)N=O)C(=O)NCc1ccccc1 (centres undefined) | – | > 100 µM | – | > 100 µM | – | – | – | > 100 µM | – | > 100 µM | – | > 100 µM | – | > 100 µM | – | – | – | – | > 100 µM | –
22 | CC(=O)c1c2c(cc3c1CC1(C3)Cc3cc4c(c(C(=O)O)c3C1)CCC4)CCC2 (centres undefined) | – | – | – | 78.7 µM | – | – | – | > 100 µM | – | – | – | > 100 µM | – | – | – | – | – | – | > 100 µM | –
